Test results: the CheMixHub viscosity set

Assay: xn = mol fraction of the nth substance listed

CC#N + O
Conditions	viscosity [mPa·s]
293.15 K, 101 kPa, x1 = 0.032	1.095
293.15 K, 101 kPa, x1 = 0.057	1.11
293.15 K, 101 kPa, x1 = 0.097	1.103
293.15 K, 101 kPa, x1 = 0.154	1.023
293.15 K, 101 kPa, x1 = 0.2	0.963
293.15 K, 101 kPa, x1 = 0.395	0.723
293.15 K, 101 kPa, x1 = 0.596	0.516
293.15 K, 101 kPa, x1 = 0.8	0.413
293.15 K, 101.33 kPa, x1 = 0.03	1.091
293.15 K, 101.33 kPa, x1 = 0.06	1.124
293.15 K, 101.33 kPa, x1 = 0.12	1.105
293.15 K, 101.33 kPa, x1 = 0.22	1.029
293.15 K, 101.33 kPa, x1 = 0.29	0.9338
293.15 K, 101.33 kPa, x1 = 0.37	0.7979
293.15 K, 101.33 kPa, x1 = 0.43	0.722
293.15 K, 101.33 kPa, x1 = 0.61	0.5948
293.15 K, 101.33 kPa, x1 = 0.7	0.5389
293.15 K, 101.33 kPa, x1 = 0.87	0.4657
298.15 K, 101 kPa, x1 = 0.046	0.867
298.15 K, 101 kPa, x1 = 0.1	0.862
298.15 K, 101 kPa, x1 = 0.2	0.858
298.15 K, 101 kPa, x2 = 0.2626	0.42
298.15 K, 101 kPa, x2 = 0.4466	0.517
298.15 K, 101 kPa, x2 = 0.4952	0.554
298.15 K, 101 kPa, x2 = 0.6032	0.651
298.15 K, 101 kPa, x2 = 0.613	0.66
298.15 K, 101 kPa, x2 = 0.6508	0.669
298.15 K, 101 kPa, x2 = 0.7029	0.754
298.15 K, 101 kPa, x2 = 0.7445	0.801
298.15 K, 101 kPa, x2 = 0.7543	0.815
298.15 K, 101.3 kPa, x1 = 0.025	0.9497
298.15 K, 101.3 kPa, x1 = 0.05	0.9779
298.15 K, 101.3 kPa, x1 = 0.075	0.9826
298.15 K, 101.3 kPa, x1 = 0.1	0.9704
298.15 K, 101.3 kPa, x1 = 0.2019	0.8706
298.15 K, 101.33 kPa, x2 = 0.1028	0.375
298.15 K, 101.33 kPa, x2 = 0.2071	0.402
298.15 K, 101.33 kPa, x2 = 0.297	0.436
298.15 K, 101.33 kPa, x2 = 0.4021	0.495
298.15 K, 101.33 kPa, x2 = 0.4985	0.563
298.15 K, 101.33 kPa, x2 = 0.6057	0.656
298.15 K, 101.33 kPa, x2 = 0.6987	0.75
298.15 K, 101.33 kPa, x2 = 0.7843	0.842
298.15 K, 101.33 kPa, x2 = 0.8773	0.94
303.15 K, 101 kPa, x1 = 0.032	0.861
303.15 K, 101 kPa, x1 = 0.0498	0.8684
303.15 K, 101 kPa, x1 = 0.057	0.872
303.15 K, 101 kPa, x1 = 0.065	0.8736
303.15 K, 101 kPa, x1 = 0.084	0.8728
303.15 K, 101 kPa, x1 = 0.097	0.868
303.15 K, 101 kPa, x1 = 0.1498	0.8314
303.15 K, 101 kPa, x1 = 0.154	0.815
303.15 K, 101 kPa, x1 = 0.2	0.774
303.15 K, 101 kPa, x1 = 0.2534	0.7376
303.15 K, 101 kPa, x1 = 0.3831	0.6065
303.15 K, 101 kPa, x1 = 0.395	0.607
303.15 K, 101 kPa, x1 = 0.5071	0.5088
303.15 K, 101 kPa, x1 = 0.596	0.449
303.15 K, 101 kPa, x1 = 0.6075	0.4532
303.15 K, 101 kPa, x1 = 0.7039	0.4039
303.15 K, 101 kPa, x1 = 0.8	0.372
303.15 K, 101 kPa, x1 = 0.8042	0.3676
303.15 K, 101 kPa, x1 = 0.894	0.3442
308.15 K, 101 kPa, x1 = 0.046	0.707
308.15 K, 101 kPa, x1 = 0.0498	0.7729
308.15 K, 101 kPa, x1 = 0.065	0.7826
308.15 K, 101 kPa, x1 = 0.084	0.7812
308.15 K, 101 kPa, x1 = 0.1	0.705
308.15 K, 101 kPa, x1 = 0.1498	0.7485
308.15 K, 101 kPa, x1 = 0.2	0.697
308.15 K, 101 kPa, x1 = 0.2534	0.67
308.15 K, 101 kPa, x1 = 0.3831	0.5596
308.15 K, 101 kPa, x1 = 0.5071	0.4711
308.15 K, 101 kPa, x1 = 0.6075	0.4236
308.15 K, 101 kPa, x1 = 0.7039	0.3804
308.15 K, 101 kPa, x1 = 0.8042	0.3486
308.15 K, 101 kPa, x1 = 0.894	0.3278
313.15 K, 101 kPa, x1 = 0.032	0.698
313.15 K, 101 kPa, x1 = 0.0498	0.6998
313.15 K, 101 kPa, x1 = 0.057	0.707
313.15 K, 101 kPa, x1 = 0.065	0.7058
313.15 K, 101 kPa, x1 = 0.084	0.7062
313.15 K, 101 kPa, x1 = 0.097	0.707
313.15 K, 101 kPa, x1 = 0.1498	0.6782
313.15 K, 101 kPa, x1 = 0.154	0.668
313.15 K, 101 kPa, x1 = 0.2	0.641
313.15 K, 101 kPa, x1 = 0.2534	0.612
313.15 K, 101 kPa, x1 = 0.3831	0.5157
313.15 K, 101 kPa, x1 = 0.395	0.516
313.15 K, 101 kPa, x1 = 0.5071	0.441
313.15 K, 101 kPa, x1 = 0.596	0.399
313.15 K, 101 kPa, x1 = 0.6075	0.3978
313.15 K, 101 kPa, x1 = 0.7039	0.3598
313.15 K, 101 kPa, x1 = 0.8	0.34
313.15 K, 101 kPa, x1 = 0.8042	0.3318
313.15 K, 101 kPa, x1 = 0.894	0.3132
318.15 K, 101 kPa, x1 = 0.046	0.584
318.15 K, 101 kPa, x1 = 0.0498	0.635
318.15 K, 101 kPa, x1 = 0.065	0.6402
318.15 K, 101 kPa, x1 = 0.084	0.6409
318.15 K, 101 kPa, x1 = 0.1	0.58
318.15 K, 101 kPa, x1 = 0.1498	0.6185
318.15 K, 101 kPa, x1 = 0.2	0.578
318.15 K, 101 kPa, x1 = 0.2534	0.5635
318.15 K, 101 kPa, x1 = 0.3831	0.4801
318.15 K, 101 kPa, x1 = 0.5071	0.4101
318.15 K, 101 kPa, x1 = 0.6075	0.3754
318.15 K, 101 kPa, x1 = 0.7039	0.3408
318.15 K, 101 kPa, x1 = 0.894	0.2996
323.15 K, 101 kPa, x1 = 0.032	0.579
323.15 K, 101 kPa, x1 = 0.0498	0.5802
323.15 K, 101 kPa, x1 = 0.057	0.587
323.15 K, 101 kPa, x1 = 0.097	0.589
323.15 K, 101 kPa, x1 = 0.154	0.561
323.15 K, 101 kPa, x1 = 0.2	0.54
323.15 K, 101 kPa, x1 = 0.395	0.447
323.15 K, 101 kPa, x1 = 0.596	0.356
323.15 K, 101 kPa, x1 = 0.8	0.312
